From patent publication US7442681B2, “Method of inhibiting vascular permeability” (University of Virginia Patent Foundation, priority 2004, dated 2008)
Where no end group is shown, it is not given here.

Legend:
[1] = system: myosin light chain (MLC); assay: MLC phosphorylation, Western blot, BAEC; assay type: cell-based, bovine; details: 25 ng/ml VEGF, 20 μg/ml peptide or 5 μM ML7
Experimental: FIG. 6. Regulation of myosin light chain (MLC) phosphorylation by PAK. FIG. 6A: confluent BAEC on FN were treated with vehicle only (+vehicle), 20 μg/ml control peptide (+con pep), 20 μg/ml PAK-blocking peptide (+PAK pep; SEQ ID NO:1), 5 μM ML7 (+ML7) with (+) or without (−) 25 ng/ml VEGF. […] FIG. 6B: as described in A, BAEC were pretreated with 20 μg/ml control peptide (+con pep) or PAK-blocking peptide (+PAK pep) followed by 25 ng/ml of VEGF, 25 ng/ml bFGF, 10 μM histamine, 0.1 units/ml thrombin, or 10 ng/ml of TNF. Upper row, anti-phospho-MLC (pMLC); middle row, total MLC (total MLC); and lower row, pMLC plus an antigenic phospho-peptide (pMLC+AP). […]
Western Blots—Confluent cells were starved in 0.5% serum for 18 h, treated as described in the legends to FIGS. 1, 2, 3 and 6, washed with cold PBS, and then harvested by scraping in cold lysis buffer (25 mM Tris, pH 7.4, 1% Nonidet P-40, 0.5% sodium deoxycholate, 137 mM NaCl, 50 μM EDTA, 10 μg/ml each aprotinin and leupeptin, 1 mM phenylmethylsulfonyl fluoride). […] Protein was transferred to polyvinylidene difluoride membrane, and blots were probed with primary antibodies (described under “Fluorescence Imaging”) followed by horseradish peroxidase-conjugated secondary antibodies (Jackson ImmunoResearch, Inc.). […]

[2] = system: murine lungs; assay: Histology of murine lungs treated with peptide and LPS; assay type: in vivo; details: mice, peptide 1 mg ip, no LPS
Text: FIG. 9. Histology of murine lungs treated with PAK blocking peptide and LPS. FIGS. 9A (200× magnification), 9B (400×), and 9C (200×) represent photomicrographic images. […] There is some phosphoPAK staining (visible as brown stain in the original color micrographs) present in epithelial structures, alveolar walls (composed of mixed cell types), and vessel endothelium and smooth muscle. Arrow indicates a normal small vessel with red blood cells and few circulating leukocytes. Tissues were counterstained with hematoxylin.
FIG. 10. Histology of murine lungs treated with PAK blocking peptide and LPS. FIGS. 10A (200× magnification), 10B (400×), and 10C (200×) represent photomicrographic images. […] Vessel sections (arrow) indicate that LPS highly increases the amount of pPAK in vessel walls, and also produces inflammatory enlargement of vessels, with an increase in numbers of recruited neutrophils and monocytes admixed with red blood cells and intravasating through vessel walls, an indicator of acute inflammation. Some alveolar tissues are completely eroded and filled with exudate and dead cells (FIG. 10C). Tissues were counterstained with hematoxylin.
FIG. 11. Histology of murine lungs treated with PAK blocking peptide and LPS. FIGS. 11A (200× magnification), 11B (400×), and 11C (200×) represent photomicrographic images. […]

[3] = system: BAEC; assay: Paracellular pore formation assay, BAEC on filters; assay type: cell-based, bovine; details: with or without VEGF
Experimental: FIG. 5. Effects of PAK on remodeling of cell-cell junctions and the actin cytoskeleton. FIG. 5A: confluent BAECs on coverslips were serum-starved for 18 hours and then treated with 25 ng/ml VEGF. The cells were fixed and stained for phospho-PAK and F-actin. Images show phospho-PAK (pPAK) and F-actin (F-actin) at the indicated times after the addition of VEGF. White arrows indicate pores between cells. Scale bar=50μ. FIG. 5B: phospho-PAK (pPAK) and F-actin (F-actin) are shown in cells prepared and treated as described in FIG. 5A after 60 minutes with VEGF with peptide additions. […]
Monolayer Permeability and Paracellular Pore Formation Assays—Cells were plated onto FN-coated polycarbonate membranes (3.0-μ pore size; Transwell, Costar) at 6×10^4 cells/cm^2 and cultured for 4 days with medium changes every other day until confluence was reached. […] Medium was harvested from the lower chamber, and HRP activity was determined calorimetrically by absorbance at 490 nm to detect the […] reaction product after 15 minutes of incubation with 0.5 mM guaiacol, 50 mM Na2HPO4, and 0.6 mM H2O2. […] To quantify paracellular pore formation and correlate to permeability, the fixed cell monolayer-covered filters were stained for 2 hours with Coomassie Blue (0.25% in 1:1:2 of methanol:glacial acetic acid:double distilled (dd)H2O), destained in the same solution minus dye, rinsed in ddH2O, and air-dried. […]

O=S(=O)(c1cccc2c(I)cccc12)N1CCCNCC1 [ML7]
MLC phosphorylation induced by VEGF [1]: inhibited

YGRKKRRQRRRGKPPAPPMRNTSTM [PAK-blocking peptide]
lung histology, peptide-only [2]: equivalent to untreated mice

B1: PAK AID: PAK autoinhibitory domain, residues 83-149, cloned into the pDsRed1-N1 vector and expressed by transient transfection (protein, UniProt Q13153 83-149, looked up, fragment)
chain: HTIHVGFDAVTGEFTGMPEQWARLLQTSNITKSEQKKNPQAVLDVLEFYNSKKTSNSQKYMSFTDKS
modifications: DsRed fusion
formation of pores between adjacent cells [3]: inhibited pore formation
